1 compound from US9481796B2, “Method for producing nanoparticles” (M. Technique Co., Ltd., priority 2010, dated 2016) can be followed below.

The structures appear in SMILES notation.

The data set is described as follows: Volume-average particle diameter of benzbromarone nanoparticles (Nanotrac particle size distribution), Example 2-2. It counts as physicochemical. The following applies: ethanol solution of 3% benzbromarone/0.1% Tween 80 into pure water. As to the method:
Particle size distribution was measured by using a Nanotrac particle size distribution measurement instrument (UPA-EX150, manufactured by Nikkiso Co., Ltd.), and the volume-average particle diameter was taken. An ethanol solution in which benzbromarone and Tween 80 (dispersant) were dissolved with the concentrations thereof being 3% for benzbromarone and 0.1% for Tween 80 was introduced as a second fluid into between the processing surfaces 1 and 2 at a rate of 10 mL/minute, together with pure water as a first fluid from the center at supply pressure of 0.25 MPa, a rotation speed of 700 rpm, and a rate of 200 g/minute, whereby the two fluids were mixed. The dispersion solution of benzbromarone was discharged. Temperature conditions of the first fluid and the second fluid, and results of particle size distribution of the obtained dispersion solution are shown in Table 3. The particle diameters of nanoparticles obtained in respective conditions were confirmed by a transmission electron microscope (TEM); it was confirmed that the particle diameter confirmed by the TEM picture was identical to the measurement result of the particle size distribution. The SEM picture of the nanoparticles obtained under the temperature conditions of 25° C. for the first fluid and 25° C. for the second fluid (ΔT=0° C.) is shown in FIG. 17; and the TEM picture of the nanoparticles obtained under the temperature conditions of 5° C. for the first fluid and 35° C. for the second fluid (ΔT=30° C.) is shown in FIG. 18, respectively.

Consider `CCc1oc2ccccc2c1C(=O)c1cc(Br)c(O)c(Br)c1` [benzbromarone], for which the Volume-average particle diameter stood at 229.3 nm (T1 5°C, T2 5°C, ΔT 0); 204.6 nm (T1 5°C, T2 8°C, ΔT 3); 51.3 nm (T1 5°C, T2 10°C, ΔT 5); 58.6 nm (T1 5°C, T2 35°C, ΔT 30); 208.4 nm (T1 25°C, T2 25°C, ΔT 0).
